Experimental data: US5686458A, “Quinazoline deriviates for treating peptic ulcer” (Yuhan Corporation, priority 1992, dated 1997)

Legend:
gastric secretion = test: Inhibition of Gastric Secretion, pylorus-ligated rats (Experiment 2); format: in vivo, Sprague-Dawley rats; conditions: relative to omeprazole (equation III), 20 mg/kg intraduodenally, pylorus-ligated rats, 5 hours
Description: In accordance with the method disclosed in Shay, H., et al., Gastroenterology 5, 43-61(1945), Experiment 2 was carried out.
Sprague-Dawley rats having a body weight of 170±10 g were divided into 3 groups(n=5) and deprived of food for 24 hours before the experiment with free access to water. Under ether anesthesia, the abdomen was incised, and the pylorus was ligated. As a comparative group, Group 1 was administered intraduodenally in a volume of 0.5 ml/200 g of 30% aqueous polyethylene glycol 400 solution. Groups 2 and 3 were administered intraduodenally with the compound of Example 34 and omeprazole, respectively, each of which was suspended in 30% aqueous polyethylene glycol 400 solution at a concentration of 20 mg/kg. After closing the abdominal cavity, the rats were placed for 5 hours and then killed by cervical dislocation. The stomach was extracted to obtain gastric juice.
The gastric juice was centrifuged at 1,000 g to remove precipitates. The amount and acidity of the gastric juice were measured. Relative volumes, relative acid concentrations and relative acid outputs of the test compounds were calculated from equations(I), (II) and (III) and the results are shown in Table 2.
(I) = the average amount of gastric juice of Group 1 - the
average amount of gastric juice of Group 2)/(the average
amount of gastric juice of Group 1 - the average amount
of gastric juice of Group 3)
Relative acid concentration
(II) = (the average acidity of Group 1 - the average
acidity of Group 2)/(the average acidity of Group 1 - the average
(III) = (the total amount of acid output of Group 1 - the
total amount of acid output of Group 2)/(the total amount of acid
output of Group 1 - the total amount of acid output of Group

[1] = molecular target: T1, Proton Pump (H^+ /K^+ ATPase) (Oryctolagus cuniculus, UniProt P27112); test: Inhibition of Proton Pump (H+/K+ ATPase) Activity, in vitro enzyme reaction (Experiment 1); format: biochemical, New Zealand white rabbit; conditions: for Effect ratio: IC50 of Omeprazole / IC50 of test compound; for IC50: K+-stimulated H+/K+ ATPase activity, rabbit gastric microsomes, pH 7.2, 37° C., 15 min prereaction, 30 min reaction, read-out: IC50 of test compound, inhibition (50%) of the proton pump activity
T1 construct: The microsomes thus obtained were used as an enzyme source of the in vitro enzyme reaction study of proton pump; from tissue; host or cells: rabbit stomach, mucosal scrapings, microsomes (180,000 g pellet)
T1 sequence (P27112 whole entry): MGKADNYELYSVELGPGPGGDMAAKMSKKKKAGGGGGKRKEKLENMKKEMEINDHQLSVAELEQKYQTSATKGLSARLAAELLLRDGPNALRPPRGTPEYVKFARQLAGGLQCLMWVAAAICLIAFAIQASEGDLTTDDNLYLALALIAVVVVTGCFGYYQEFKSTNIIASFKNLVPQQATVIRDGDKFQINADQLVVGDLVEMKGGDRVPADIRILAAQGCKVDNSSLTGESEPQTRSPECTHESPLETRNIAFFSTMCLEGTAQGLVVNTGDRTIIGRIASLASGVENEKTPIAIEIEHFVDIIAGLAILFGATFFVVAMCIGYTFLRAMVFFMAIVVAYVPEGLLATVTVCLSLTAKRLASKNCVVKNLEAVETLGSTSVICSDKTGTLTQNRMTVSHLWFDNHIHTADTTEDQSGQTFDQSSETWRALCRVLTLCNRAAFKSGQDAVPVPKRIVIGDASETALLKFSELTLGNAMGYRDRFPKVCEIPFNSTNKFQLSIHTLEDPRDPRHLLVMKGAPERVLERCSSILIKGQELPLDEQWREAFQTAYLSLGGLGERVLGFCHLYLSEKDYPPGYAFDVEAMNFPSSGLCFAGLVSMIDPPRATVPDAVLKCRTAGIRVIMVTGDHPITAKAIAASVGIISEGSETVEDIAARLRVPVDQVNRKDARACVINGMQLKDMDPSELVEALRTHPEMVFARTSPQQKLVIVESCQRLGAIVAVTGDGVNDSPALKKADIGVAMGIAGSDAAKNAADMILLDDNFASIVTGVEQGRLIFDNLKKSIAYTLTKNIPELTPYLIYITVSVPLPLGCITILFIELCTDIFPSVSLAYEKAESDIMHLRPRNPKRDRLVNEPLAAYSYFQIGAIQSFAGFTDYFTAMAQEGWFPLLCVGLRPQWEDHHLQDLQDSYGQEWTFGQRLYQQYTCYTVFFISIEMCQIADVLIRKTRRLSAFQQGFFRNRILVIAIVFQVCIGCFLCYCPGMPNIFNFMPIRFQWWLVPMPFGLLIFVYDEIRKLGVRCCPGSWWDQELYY
T1 sequence (P18597 whole entry partner): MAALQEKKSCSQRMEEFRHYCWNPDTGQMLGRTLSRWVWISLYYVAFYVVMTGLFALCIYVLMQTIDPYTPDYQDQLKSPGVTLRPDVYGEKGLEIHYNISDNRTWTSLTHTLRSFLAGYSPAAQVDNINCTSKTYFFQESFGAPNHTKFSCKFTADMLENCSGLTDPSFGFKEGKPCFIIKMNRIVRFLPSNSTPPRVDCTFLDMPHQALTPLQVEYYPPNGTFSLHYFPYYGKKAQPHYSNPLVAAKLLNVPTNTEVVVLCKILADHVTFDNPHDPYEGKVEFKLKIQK
Description: A New Zealand white rabbit was killed by blowing its head and the stomach was taken out. The contents of the stomach were removed and the stomach walls were washed with was saline. The inner wall of the stomach was scratched out with a slide glass and the cells thus obtained were homogenized in 0.25M sucrose buffer by means of a Teflon-glass homogenizer. The homogenous solution was centrifuged at 10,000 g for 10 minutes and the supernatant was further centrifuged at 20,000 g for 20 minutes. The supernatant thus obtained was centrifuged at an ultra-high speed of 180,000 g for 1 hour. The pellets precipitated were collected by discarding the supernatant and suspended in 50 mM Tris-HCl buffer having pH 7.2. The suspension was dialyzed twice with the same buffer(of 1,000 times volume) for 3 hours and stored into liquid nitrogen.
The above centrifugation and dialysis were carried out at 4° C. The microsomes thus obtained were used as an enzyme source of the in vitro enzyme reaction study of proton pump.
The inhibitory effects of proton pump activity by the compounds of the present invention were measured by the in vitro enzyme reaction study. The proton pump activity stimulated by Mg^++ was used as a negative comparative group, and the activity stimulated by Mg^++ and K^+ was used as a positive comparative group. The comparative compound was omeprazole.
Test tubes were divided into 4 groups: Group 1 as negative comparative group(n=3), Group 2 as positive comparative group(n=3), Group 3(n=5) to be administered with the compound of the present invention and Group 4(n=5) to be administered with the comparative compound. The inhibitory effects of proton pump activity of Groups 3 and 4 were measured by employing the compound prepared in Example 34 and omeprazole, respectively, each of which was dissolved in dimethylsulfoxide at 5 different concentrations.
To each of Groups 1, 2, 3 and 4, were added 0.1 ml of magnesium chloride(40 mM) dissolved in 50 mM Tris-HCl buffer (pH 7.2) and […] of the enzyme source prepared in Experiment 1-1. Then, 0.1 ml of potassium chloride(500 mM) and 0.1 ml of ammonium chloride(100 mM) dissolved in 50 mM Tris-HCl buffer(pH 7.2) were added to all groups except for Group 1.
0.1 ml of dimethylsulfoxide was added to each of Groups 1 and 2; and to Group 3 was added 0.01 ml of the solution in which the compound prepared in Example 34 was dissolved in dimethylsulfoxide at 5 different concentrations. To Group 4, 0.01 ml of the solution prepared by dissolving omprazole in dimethylsulfoxide at 5 different concentrations(37.6, 21.4, 12.2, 7.0 and 4.0 μM) was added. 50 mM Tris-HCl buffer was added thereto so as to make the total volume 0.4 ml.
Thereafter, the test tubes of each Group were placed at 37° C. for 15 minutes for the prereaction. 0.1 ml of ATP solution(33.3 mM), which was prepared by adding Tris-ATP 50 mM to Tris-HCl buffer having pH 7.2, was added until the reaction volume became 0.5 ml. The final concentrations of MgCl2, KCl, NH4 Cl, ATP, enzyme and Tris-HCl were 8 mM, 100 mM, 20 mM, 6.7 mM, 100μg/ml and 50 mM, respectively. After the reaction was carried out at 37° C. for 30 minutes, 25% cold trichloroacetic acid was added to terminate the enzyme reaction. The released inorganic phosphate was measured by an automatic analyzer(SBA 300, Gilford).
The difference between Group 1 and Group 2 represents the proton pump activity activated by K^+ only. The inhibition percentages of Groups 3 and 4 were calculated from Litchfield-wilcoxon equation[see J. Pharmacol. Exptl. Ther. 96, 99(1949)]. The concentrations of the test compounds which inhibit 50% of the proton pump activity are represented as IC50 in Table 1.

Compound | Effect ratio [1] | IC50 [1] | Relative Acid Output (gastric secretion)
COc1cccc2c(N3CCc4cc(C)ccc4C3C)nc(Nc3ccc(F)cc3)nc12.Cl (stereo not drawn) [Example 54, 2-(4-Fluorophenylamino)-8-Methoxy-4-(1,6-Dimethyl-1,2,3,4-Tetrahydroisoquinoline-2-Yl)Quinazoline Hydrochloride] | ~ 0.64 | ~12.5 µM | 0.82
COc1cccc2c(N3CCc4cc(C)ccc4C3C)nc(Nc3ccc(F)cc3C)nc12.Cl (stereo not drawn) [Example 55, 2-(4-Fluoro-2-Methylphenyl-Amino)-8-Methoxy-4-(1,6-Dimethyl-1,2,3,4-Tetrahydroisoquinoline-2-Yl)Quinazoline Hydrochloride] | ~ 0.80 | ~10 µM | 0.50
COc1cccc2c(N3CC(C)c4ccccc4C3C)nc(Nc3ccc(F)cc3)nc12.Cl (stereo not drawn) [Example 56, 2-(4-Fluorophenylamino)-8-Methoxy-4-(1,4-Dimethyl-1,2,3,4-Tetrahydroisoquinoline-2-Yl)Quinazoline Hydrochloride] | < 0.60 | > 12.5 µM | 0.85
COc1cccc2c(N3CC(C)c4ccccc4C3C)nc(Nc3ccc(F)cc3C)nc12.Cl (stereo not drawn) [Example 57, 2-(4-fluoro-2-Methylphenyl-Amino)-8-Methoxy-4-(1,4-Dimethyl-1,2,3,4-Tetrahydroisoquinoline-2-Yl) Quinazoline Hydrochloride] | 1.04 | 7.18 µM | 0.67

Continued, in another order:

Effect ratio [1] | IC50 [1] | Compound | Relative Acid Output (gastric secretion)
0.65 | 13.6 µM | COc1cccc2c(N3CCc4cccc5c4C3CC5)nc(Nc3ccc(F)cc3)nc12.Cl (stereo not drawn) [Example 58, 8-Methoxy-2-(4-Fluorophenyl-Amino)-4-(1,8-Ethano-1,2,3,4-Tetrahydroisoquinoline-2-Yl)Quinazoline Hydrochloride] | 0.94
1.77 | 4.8 µM | COc1cccc2c(N3CCc4cccc5c4C3CC5)nc(Nc3ccc(F)cc3C)nc12.Cl (stereo not drawn) [Example 59, 8-Methoxy-2-(4-Fluoro-2-Methyl-Phenylamino)-4-(1,8-Ethano-1,2,3,4-Tetrahydroisoquinoline-2-Yl)Quinazoline Hydrochloride] | 0.83
5.20 | 1.8 µM | COc1cccc2c(N3CCc4ccccc4C3C)nc(Nc3ccc(F)cc3C)nc12.CS(=O)(=O)O (stereo not drawn) [Example 60, 2-(4-Fluoro-2-MethylPhenyl-Amino)-8-Methoxy-4-(1-Methyl-1,2,3,4-Tetrahydroisoquinoline-2-Yl)Quinazoline Methanesulfonate] | 0.84
4.42 | 2.1 µM | COc1cccc2c(N3CCc4ccccc4C3C)nc(Nc3ccc(F)cc3C)nc12.O=C(O)CC(O)C(=O)O (stereo not drawn) [Example 61, 2-(4-Fluoro-2-Methylphenyl-Amino)-8-Methoxy-4-(1-Methyl-1,2,3,4-Tetrahydroisoquinoline-2-Yl)Quinazoline Malate] | 0.76
